Test results: patent publication US9884065B2, “Inhibiting activity of senescent cells using a glucocorticoid” (Buck Institute for Research on Aging, priority 2011, dated 2018)

Assays:
HCA2 human fibroblasts = conditions: 2.5 μM, 48 hours
Description: The initial drug screen was performed in a 96-well format using automated liquid handling with a Biomek FX (Beckman Coulter, CA). Senescent cells were plated 24 hours after X-irradiation at 7,500 cells per well in 96-well plates. Six days after plating the senescent cells, the pre-senescent cells were plated at 7,500 cells per well in 96-well plates. Twenty-four hours after pre-senescent plating, both pre-senescent and senescent cells were washed and incubated in low (0.2%) serum for 48 hours to arrest cell proliferation of the pre-senescent cells. Drugs from the Prestwick Chemical Library, which contains 1120 bio-available compounds in DMSO, were given to the cells at 2.5 μM in media containing 0.2% serum. Forty-eight hours after compound addition, the medium in each well was removed and frozen for assay by ELISA to quantitate the levels of IL-6. The cells, which remained in the wells after the medium was removed, were lysed and ATP levels were measured (ATPlite 1-step assay, Perkin Elmer, MA) to exclude compounds that lowered IL-6 through toxicity (cell death). Experimental wells in each plate were normalized to plate mean or same-plate DMSO controls for the ELISA and ATP assays, respectively.
To identify small molecules that may be potential SASP modulators, a screening strategy that entailed administering compounds to parallel 96-well plates containing human fibroblasts (strain HCA2) that were either quiescent or senescent was developed. The compounds tested comprised the Prestwick Chemical Library, a collection of approximately 1,120 Federal Drug Administration-approved drugs. The compounds were added to duplicate wells at a single concentration (2.5 μM). After 48 hours, the medium from each well was removed, and the cells were lysed. […] Cell lysates were assayed for ATP as a surrogate for cell number.

IL-6 [1] = test: IL-6 ELISA of conditioned media from X-irradiated senescent HCA2 fibroblasts; assay type: cell-based, human; conditions: for IL-6 secretion, varying concentrations: added immediately after irradiation, 6 days
Description: To validate glucocorticoids as SASP regulators, they were added within 15 min after irradiation (unless otherwise indicated). For cells induced to senesce by MKK6 or RAS overexpression, glucocorticoid treatment started 16 hours after infection. Glucocorticoids were re-added in fresh media every other day. Six days after irradiation or selection, cells were given serum-free DMEM with or without glucocorticoid for 24 hours; the conditioned media were collected and frozen for ELISAs.
Conditioned media were filtered and stored at −80° C. Cell numbers were determined in every experiment. ELISAs were performed using kits and procedures from PerkinElmer (IL-6 AL223F). Data were normalized and expressed as pg/ml/cell/24 h.
To confirm the ability of corticosterone to suppress senescence-associated IL-6 secretion, fresh HCA2 fibroblast cultures were prepared, and senescence was induced by X-irradiation (10 Gy). Under these conditions, cells undergo growth arrest within 24-48 hours, but require 4-5 days before SASP components are detected in the medium (Coppe et al., 2008, PLoS Biol. 6:2853-2868; Rodier et al., 2009, Nature Cell Biol. 11:973-979; Coppe et al., 2010, PLoS ONE 5:e9188; Freund et al., 2011, EMBO J. 30:1536-1548). Varying concentrations of corticosterone were added immediately after irradiation, and the cells were maintained in the drug for 6 days. On the 6th day, the cells were incubated in serum-free medium with or without corticosterone, the conditioned medium was collected 24 h later, and the medium was assayed for IL-6 by ELISA. […] The ability of corticosterone to suppress IL-6 secretion by senescent cells was not peculiar to HCA2 cells.

SASP = test: Antibody arrays of conditioned media (120 cytokines and growth factors, SASP); assay type: cell-based, human; conditions: 500 nM corticosterone or 100 nM cortisol
Description: Cultures were washed and incubated in serum-free DMEM for 24 hours and the conditioned media were diluted to equivalent cell numbers using DMEM. Antibody arrays from Raybiotech (AAH-CYT-G1000-8) were used according to the manufacturer's instructions. Arrays were scanned using a GenePix 4200A Professional microarray scanner. Signal intensities were quantitated using LI-COR Odyssey software and normalized to positive controls for each sample, which were then normalized across all samples, as previously described (Freund et al., 2011, EMBO J. 30:1536-1548).
To determine whether or not, or to what extent corticosterone or cortisol suppressed the entire SASP, antibody arrays were used to interrogate the relative secretion of 120 cytokines and growth factors. Presenescent and senescent cells were incubated with 500 nM corticosterone or 100 nM cortisol (FIG. 12C).

IL-6 [2] = test: IL-6 ELISA, HCA2 cells induced to senesce by oncogenic RAS or MKK6 overexpression; assay type: cell-based, human; conditions: 500 nM corticosterone, 100 nM cortisol, 6 days
Description: (FIG. 12A) Senescent X-irradiated with 10 Gy (Sen (XRA)) HCA2 fibroblasts were incubated in medium plus 10% serum containing the indicated concentrations of corticosterone or the highest concentration of DMSO (vehicle control). The cells were given corticosterone or DMSO immediately after irradiation and analyzed 6 days later. The cells were washed and incubated in serum-free medium without corticosterone to generate conditioned media. Conditioned media from pre-senescent (Pre) and control or corticosterone-treated Sen (XRA) cells were analyzed by ELISA for IL-6. (FIG. 12B) Cells were treated, and conditioned media were generated and analyzed as described in (FIG. 12A) except cortisol was used at the indicated concentrations. (FIG. 12C) Conditioned media were collected from presenescent (PRE) or senescent (XRA) cells that were treated with DMSO, corticosterone ([…]), or cortisol (100 nM) as described in (FIG. 12A). The conditioned media were analyzed by antibody arrays. Average signal from PRE and XRA DMSO cells was used as the baseline. Signals higher than baseline are light gray (see +1 on scale to right); signals lower than baseline are dark gray as illustrated by PRE DMSO (see −1 on scale at right). […]
Conditioned media were filtered and stored at −80° C. Cell numbers were determined in every experiment. […] Data were normalized and expressed as pg/ml/cell/24 h.

SASP factor mRNA = test: Real-time quantitative PCR of transcripts in HCA2 cells (normalized to tubulin); assay type: cell-based, human; conditions: 500 nM corticosterone or 100 nM cortisol; for IL-6, IL-8, MMP-3 mRNA levels: senescent X-irradiated HCA2 cells
Description: Cells (7,500/well) in 96-well plates were lysed and reverse transcribed using the Cells-To-Ct kit (Ambion).

NF-κB [3] = test: NF-κB DNA binding activity in nuclear extracts (TransAM NF-κB p65 kit); assay type: cell-based, human; conditions: senescent cells; 500 nM corticosterone or 100 nM cortisol
Description: (§1) Nuclear extracts were prepared using the nuclear extract kit (Active Motif), and NF-κB DNA binding was determined using the TransAM NF-κB p65 kit (Active Motif). For transactivation assays, cells infected with the NF-κB reporter-luciferase lentivirus were lysed in buffer (Promega), and luciferase activity was normalized to cell number, as described (Freund et al., 2011, EMBO J. 30:1536-1548).

NF-κB [4] = test: NF-κB reporter-luciferase transactivation assay; assay type: cell-based, human; conditions: senescent cells; 500 nM corticosterone or 100 nM cortisol
Description: as §1

| SMILES | ATP levels (HCA2 human fibroblasts) | reduction of IL-6 secretion (IL-6 [1]; 20 nM corticosterone) | maximal suppression of IL-6 secretion (IL-6 [1]; 500 nM corticosterone) [%] | IL-6 secretion, continuous exposure (IL-6 [1]; 500 nM, continuous exposure for 7 days after irradiation) | IL-6 secretion, short exposure (IL-6 [1]; 500 nM, pretreatment before X-irradiation, or only 24 hours immediately after irradiation or after establishment of the SASP (7 days)) | IL-6 secretion, varying concentrations (IL-6 [1]) | secretion of growth and angiogenic factors (SASP) | secretion of pro-inflammatory cytokines and chemokines (SASP) | suppression of all components of the SASP (SASP) | suppression of senescence-associated IL-6 secretion (IL-6 [2]) | GR mRNA levels (SASP factor mRNA) | IκBα mRNA levels (SASP factor mRNA) | IL-6, IL-8, MMP-3 mRNA levels (SASP factor mRNA) | NF-κB DNA binding (NF-κB [3]) | NF-κB transactivation activity (NF-κB [4]) | reduction of senescence-associated IL-6 secretion (IL-6 [1]; 100 nM cortisol) [%] | IC50 (IL-6 [1]; Homo sapiens, HCA2, sub-nM concentrations, read-out: concentration reducing senescence-associated IL-6 secretion by 50%) [nM] |
| --- | --- | --- | --- | --- | --- | --- | --- | --- | --- | --- | --- | --- | --- | --- | --- | --- | --- |
| C[C@]12C[C@H](O)[C@H]3[C@@H](CCC4=CC(=O)CC[C@@]43C)[C@@H]1CC[C@@H]2C(=O)CO [corticosterone] | without altering ATP levels | approximately 50% | > 90 | strongly suppressed IL-6 secretion | had no effect on IL-6 secretion | decreased IL-6 secretion in a dose-dependent manner | suppressed the secretion of several growth and angiogenic factors such as VEGF | strongly suppressed the secretion of several pro-inflammatory cytokines and chemokines, including IL-6, IL-8, GM-CSF and MCP-2 | Neither glucocorticoid suppressed all components of the SASP | effective | unaffected by glucocorticoid addition | no effect on IκBα mRNA levels | strongly reduced | significantly decreased | significantly decreased |  |  |
| C[C@]12CCC(=O)C=C1CC[C@@H]1[C@@H]2[C@@H](O)C[C@@]2(C)[C@H]1CC[C@]2(O)C(=O)CO [cortisol] | without altering ATP levels |  |  |  |  | decreased IL-6 secretion in a dose-dependent manner, and was more potent than corticosterone | suppressed the secretion of several growth and angiogenic factors such as VEGF | strongly suppressed the secretion of several pro-inflammatory cytokines and chemokines, including IL-6, IL-8, GM-CSF and MCP-2 | Neither glucocorticoid suppressed all components of the SASP | effective | unaffected by glucocorticoid addition | no effect on IκBα mRNA levels | strongly reduced | significantly decreased | significantly decreased | > 90 | 0.16 to 0.8 |
